The text below walks through data of patent US10745390B2, “Small molecule activators of mitochondrial function” (THE TRUSTEES OF THE UNIVERSITY OF PENNSYLVANIA, priority 2008, dated 2020).

For one data set, the system named is yeast lacking Yfh1p. Description: Yeast-based screening assay (WST-1 tetrazolium dye reduction). It is filed as cell-based. Particulars: glycerol medium, 72 h, OD450, single dose 50 uM, activity threshold >1.32 fold increase in absorbance. On the procedure:
The aim of this assay is to identify compounds that can improve mitochondrial function in yeast lacking Yfh1p grown in a non-fermentable growth medium. The yeast Yfh1p expression construct used in this study has a galactose-inducible, glucose-repressible promoter driving Yfh1p production. Yfh1p is expressed when yeast are grown in the presence of galactose and inhibited when they are grown in the presence of dextrose. Growing the cells in the presence of dextrose not only turns off the expression of Yfh1p, but also leads to the depletion of Yfh1p in the cells. Transferring the Yfh1p-depleted cells into a non-fermentable, glycerol-based medium dictates that the yeast must use an oxidative pathway. […] Cleavage of the tetrazolium salt to formazan is accompanied by an increase in absorbance at 450 nm.
Compounds in the single dose assay were evaluated on the basis of Fold Induction compared to yeast only, and those in the dose response assay on percent activation, i.e. percent induction of tetrazolium dye reduction in yeast grown in a non-fermentable growth medium. Percent activation was calculated using the optical density in control wells with cells treated with positive control compound (25 uM methyl 4-(1, 2, 4, 5-tetraazin-3-yl) phenyl ether (MLSMR External ID: MLS000550612; PubChem SID: 14718875)) as full induction of tetrazolium dye reduction (100% activation), and wells with cells grown in medium without methyl 4-(1, 2, 4, 5-tetraazin-3-yl) phenyl ether as an indicator of 0% activation. Library compounds were screened at 50 uM. From the 50 uM single dose assay, 1250 compounds with significant tetrazolium dye reduction were selected for confirmatory dose response assay. These compounds were screened in a 10-point dilution series ranging from 0.01 to 100 uM.
The following screening protocol was followed. Yeast cells containing an inducible/repressible promoter for Yfh1p expression were cultured in induction medium (Yfh1 on) with Galactose as the carbon source, and then shifted to repression medium (Yfh1 off) with Dextrose as the carbon source (for 24 hours) to allow Yfh1 protein to decay. The cells were then incubated for 24 h in respiration-only medium (Yfh1 off) with Glycerol as the carbon source to allow cells to equilibrate, and then plated in 384 well plates in respiration-only medium (Yfh1 off) with glycerol as carbon source, in the presence of Tetrazolium dye (WST-1) for 72 hours.
Preparation of Assay • 1. Cells were streaked out on a YPGal agar plate and grown inverted for 3 days at 30 C. • 2. A colony was selected and 10 mL of YPGal medium inoculated and grown over night at 30 C with shaking. • 3. The cells were counted on a coulter counter, centrifuged at 1400 g for 5 min in dextrose (CSMM-D) medium, washed twice to remove all galactose, and resuspended in CSMM-D medium at a cell density of 2 to the power of 5 cells/mL. • 4. Frozen stocks were prepared at this point, in dextrose medium. For these dextrose stock solutions, enough culture was grown in dextrose media over night with shaking at 30 C, to get a cell density of ˜2 to the power of 7 cells/mL. The cells were centrifuged at 1400 g for 5 min and the pellet resuspended in glycerol freezing medium at a cell density of 2 to the power of 8 cells/mL. • 5. The day before the screen, frozen culture was thawed at room temperature and resuspended in glycerol (CSMM-G) medium. • 6. The culture was grown over night at 30 C with shaking and the cells counted and diluted in CSMM-G medium for a final cell density of 4 to the power of 6 cells/mL. • 7. Methyl 4-(1, 2, 4, 5-tetraazin-3-yl) phenyl ether (positive control), CSMM-G medium alone (negative control) and compounds were plated with DMSO at 200× concentration (final concentrations: methyl 4-(1, 2, 4, 5-tetraazin-3-yl) phenyl ether 25 uM, compounds 50 uM, DMSO 0.5%) in 384-well plates: 125 nL/well. For the dose response assay, compounds were plated in a 10-point dilution series ranging from 0.01 to 100 uM, at 1% DMSO. • 8. […]
In general terms: Tetrazolium assays rely on reduction of a dye to a coloured formazan, in cell work by metabolically active cells.

The test system of a further data set is I154F FA cells. Description: I154F frataxin point-mutation model, rescue from FAC and/or BSO. It is filed as cell-based, murine. From the text:
2. Preliminary testing in the I154F frataxin point-mutation model determines whether test compounds can rescue I154F FA cells from lethal concentrations of FAC and/or BSO. Among the mammalian-cell models that have, or recapitulate, the genetic defects underlying FA, by far the most robust (and best validated) is the I154F murine frataxin point-mutation model developed by Puccio and colleagues (Calmels, N. et al.), the first cellular model based on frataxin missense mutations that reproduces spontaneously the defects associated with Friedreich ataxia (PLoS One 4, e6379 (2009)). […] This model is also extremely stable, with phenotypes unchanged after months of continuous culture. In contrast, the mutations in available primary human FA fibroblasts are GAA repeat expansions in the first intron of the FXN gene; occasional cells in which these expansions contract have a growth advantage and take over the culture, diluting the phenotype and increasing variance in various measures of compound efficacy.
In another screen, testing was conducted in the I154F point-mutation model as described above, to determine whether test compounds could rescue I154F FA cells from lethal or sublethal concentrations of FAC and/or BSO. Effective in this screen were the following compounds: N-[(5-chloro-8-hydroxyquinolin-7-yl)-thiophen-2-ylmethyl]-3-phenylpropanamide, N-[(5-chloro-8-hydroxyquinolin-7-yl)-thiophen-2-ylmethyl]pentanamide, N-[(5-chloro-8-hydroxyquinolin-7-yl)-furan-2-ylmethyl]-3-phenylpropanamide, N-[(5-chloro-8-hydroxyquinolin-7-yl)-furan-2-ylmethyl]propanamide, N-[(5-chloro-8-hydroxyquinolin-7-yl)-furan-2-ylmethyl]pentanamide, N-[(5-chloro-8-hydroxyquinolin-7-yl)-tolyl]-3-phenylpropanamide, N-[(5-chloro-8-hydroxyquinolin-7-yl)-(3-methoxyphenyl)methyl]-3-phenylpropanamide, N-[(5-chloro-8-hydroxyquinolin-7-yl)-(4-dimethylaminophenyl)methyl]-3-phenylpropanamide, N-[(5-chloro-8-hydroxyquinolin-7-yl)-(4-chlorophenyl)methyl]-3-phenylpropanamide, N-[(5-chloro-8-hydroxyquinolin-7-yl)-(3-chlorophenyl)methyl]-3-phenylpropanamide, N-[(5-chloro-8-hydroxyquinolin-7-yl)-(2-chlorophenyl)methyl]-3-phenylpropanamide, N-[(5-chloro-8-hydroxyquinolin-7-yl)-(3,4-dimethoxyphenyl)methyl]-3-phenylpropanamide, N-[(5-chloro-8-hydroxyquinolin-7-yl)-(2,4-dimethoxyphenyl)methyl]-3-phenylpropanamide, N-[(5-chloro-8-hydroxyquinolin-7-yl)-(3,4,5-trimethoxyphenyl)methyl]-3-phenylpropanamide, N-[(5-chloro-8-hydroxyquinolin-7-yl)-(2-bromophenyl)methyl]-3-phenylpropanamide, N-[(5-chloro-8-hydroxyquinolin-7-yl)-p-tolyl-methyl]-3-phenylpropanamide, N-[(5-chloro-8-hydroxyquinolin-7-yl)-(2-hydroxyphenyl)methyl]-3-phenylpropanamide (1a-18), and N-[(5-chloro-8-hydroxyquinolin-7-yl)-(4-methoxyphenyl)methyl]-3-phenylpropanamide.

Data set [1] has as its system superoxide dismutase activity. Description: Superoxide dismutase activity in vitro after metal pre-loading (Fluka assay kit). It is filed as biochemical. An excerpt: 3. Evaluate the catalytic activity of the compound by pre-loading with manganese, iron, or other metal and assaying superoxide dismutase and/or catalase activity in vitro. This assay helps identify a possible mechanism of action that would help explain the unusual combination of high potency, and high specificity, of the compounds embodied herein. […] Yet compounds that act catalytically are usually relatively non-specific, whereas the compounds embodied herein were confirmed active in only one assay (the FA yeast assay mentioned above) of 168 high-throughput screening assays in which they have been tested to date. With no duty to disclose the mechanism of action of the compounds embodied here and without being bound based thereon, it is hypothesized that the compounds embodied herein are chelating iron within cells and acting as superoxide dismutase (SOD) and/or catalase mimetics.
In a further evaluation, the catalytic activity of the test compound was measured by pre-loading with manganese, or various forms of iron, or other metals, and assaying superoxide dismutase activity in vitro using an assay kit from Fluka. Control levels of inhibition of SOD activity was about 4.5%, and 300 nM compound N-[(5-chloro-8-hydroxyquinolin-7-yl)-thiophen-2-ylmethyl]-3-phenylpropanamide pre-loaded with manganese about 5%. However, preloading with iron acetate increased inhibition to about 40%.

A further data set has as its system SH-SY5Y cells. Description: Killing of SH-SY5Y cells by ETC inhibitors. Particulars: for concentration range killing SH-SY5Y cells: LDH leakage and DNA fragmentation. It is filed as cell-based. On the procedure: Step 5. Screening in mammalian cells treated with inhibitors of specific complexes of the ETC.
Further screening in mammalian cells treated with inhibitors of specific complexes of the ETC is conducted.
In general terms: Release of lactate dehydrogenase indicates damage to the cell membrane.

In the next data set the test system is complex I. Put plainly: Complex I inhibition in SH-SY5Y cells. It is filed as cell-based. On the procedure:
Step 5. Screening in mammalian cells treated with inhibitors of specific complexes of the ETC. […] Antimycin A and oligomycin kill SH-SY5Y cells in the high nM range, as assessed by LDH leakage and DNA fragmentation.
Further screening in mammalian cells treated with inhibitors of specific complexes of the ETC is conducted. […] Antimycin A and oligomycin kill SH-SY5Y cells in the high nM range, as assessed by LDH leakage and DNA fragmentation.

For the compound `O=C(CCc1ccccc1)NC(c1cccs1)c1cc(Cl)c2cccnc2c1O` (stereo not shown) [N-[(5-chloro-8-hydroxyquinolin-7-yl)-thiophen-2-ylmethyl]-3-phenylpropanamide], the “active in the screen (tetrazolium dye reduction)” value in the data set on yeast lacking Yfh1p is “active”. In addition, the “rescue of I154F FA cells from lethal or sublethal concentrations of FAC and/or BSO” value in the data set with I154F FA cells is on record as “Effective”. For the same compound, the “inhibition of SOD activity” value is on record as “about 5%” in data set [1] (300 nM compound pre-loaded with manganese, control about 4.5%) and “about 40%” in data set [1] (preloading with iron acetate). In addition, the “increase in inhibition by iron” value in data set [1] (iron acetate versus manganese pre-loading) was “eight-fold”.
As for Antimycin A, the “concentration range killing SH-SY5Y cells” value with SH-SY5Y cells is “high nM range”.
Still for that read-out and setting: the entry for `CC[C@H]1/C=C/C=C/C[C@@H](C)[C@H](O)[C@@](C)(O)C(=O)[C@@H](C)[C@H](O)[C@@H](C)C(=O)[C@@H](C)[C@H](O)[C@@H](C)/C=C/C(=O)O[C@@H]2[C@H](C)[C@H](CC1)O[C@]1(CC[C@H](C)[C@H](C[C@@H](C)O)O1)[C@H]2C` [oligomycin] is “high nM range”.
As to `C=C(C)[C@H]1Cc2c(ccc3c2O[C@@H]2COc4cc(OC)c(OC)cc4[C@@H]2C3=O)O1` [Rotenone], in the data set on complex I, the “concentration range inhibiting complex I” value was “nM range”. The compound further yielded a death with SH-SY5Y cells (trypan blue exclusion, after 7 days at 60 μM) of 90%.
As for `CC(=O)NC(c1ccc(C)cc1)c1cc([N+](=O)[O-])c2cccnc2c1O` (stereo not shown) [N-[{8-hydroxy-5-nitro-7-quinolinyl}(4-methylphenyl)methyl]acetamide], the “active in the screen (tetrazolium dye reduction)” value with yeast lacking Yfh1p was “active”.
Same read-out and setting: the result for `CCC(=O)NC(c1ccc(OC)c(OC)c1)c1cc(Cl)c2cccnc2c1O` (stereo not shown) [N-[(5-chloro-8-hydroxyquinolin-7-yl)-(3,4-dimethoxyphenyl)methyl]propanamide] reads “active”.
On to `CCCCC(=O)NC(c1cccs1)c1cc(Cl)c2cccnc2c1O` (stereo not shown) [N-[(5-chloro-8-hydroxyquinolin-7-yl)-thiophen-2-ylmethyl]pentanamide], for which the “active in the screen (tetrazolium dye reduction)” value in the data set on yeast lacking Yfh1p is recorded as “active”. In addition, the “rescue of I154F FA cells from lethal or sublethal concentrations of FAC and/or BSO” value with I154F FA cells was “Effective”.
